According to patent US11161825B2, “4-oxo-2,3,4,5-tetrahydro-1H-1,5-benzodiazepine-7-carboxamides” (Bayer Aktiengesellschaft, priority 2017, dated 2021):
pIC50: −log10 of the molar value.

Assays:
[1] = target: T1, SMYD3 (Homo sapiens, UniProt Q9H7B4); experiment: SMYD3 Scintillation Proximity Assay (SPA), methylation of MAP3K2 Peptide; assay type: biochemical; settings: SMYD3 full length enzyme 10 nM, 3H-SAM 125 nM, MAP3K2 Peptide 1 μM, 120 min at 22° C.
T1 construct: The SMYD3 full length enzyme was produced in-house by expression (with an N-terminal 6×His tag) in E. coli; 6xHis (N); made in house; host or cells: E. coli
T1 sequence (Q9H7B4 1-428): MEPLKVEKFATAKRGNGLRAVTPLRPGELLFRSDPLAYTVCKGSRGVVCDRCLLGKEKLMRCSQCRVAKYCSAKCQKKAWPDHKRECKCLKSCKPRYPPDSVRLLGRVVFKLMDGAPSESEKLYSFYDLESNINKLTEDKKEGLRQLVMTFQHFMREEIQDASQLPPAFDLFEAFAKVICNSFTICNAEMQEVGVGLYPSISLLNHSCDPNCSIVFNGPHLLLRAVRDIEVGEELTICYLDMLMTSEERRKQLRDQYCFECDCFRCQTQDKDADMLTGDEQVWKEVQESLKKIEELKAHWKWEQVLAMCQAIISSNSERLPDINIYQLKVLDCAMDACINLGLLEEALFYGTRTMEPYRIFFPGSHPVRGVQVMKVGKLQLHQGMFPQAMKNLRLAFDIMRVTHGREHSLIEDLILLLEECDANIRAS
Method: SMYD3 Scintillation Proximity Assay (SPA)
The SMYD3 full length enzyme was produced in-house by expression (with an N-terminal 6×His tag) in E. coli and purification by affinity chromatography on a Ni-NTA Sepharose column followed by a size exclusion chromatography step on a Superdex 200 16/60 column (GE Healthcare).
To this end, 100-fold concentrated compound solutions (in DMSO) were previously prepared by serial dilution (1:3.4) of 2 mM stocks in a clear low volume 384-well source microtiter plate (Greiner Bio-One), from which 100 nl of compounds were transferred into a white low volume test microtiter plate from the same supplier. […] The resulting mixture (5 μl final volume) was shortly centrifuged (2 min., 1500 rpm) and incubated at 22° C. during 120 min. […] Plates containing the stopped reaction were sealed with transparent adhesive foil (Perkin Elmer), centrifuged (2 min., 1500 rpm), and further incubated overnight at 4° C. in order to allow the SPA signals to develop. Subsequently, the amount of product was evaluated by measuring the energy transfer from the […] emitted by the 3H-labeled substrate to the scintillator co-polymerized in the bead's matrix, using a TopCount NXT scintillation counter (Packard) with the standard instrument settings for this purpose. The resulting scintillation counts were taken as indicator for the amount of methylated peptide per well. […] IC50 values were calculated by fitting the normalized inhibition data to a 4-parameter logistic equation using the XLFit analysis software (IDBS).

[2] = target: T2, untagged full length SMYD3 (Homo sapiens, UniProt Q9H7B4); experiment: Thermal Shift Assay; assay type: binding; settings: protein 1.5-2.0 μM, 5× SYPRO Orange, scans 25° C. to 80° C.; control 4% DMSO
T2 construct: As protein untagged full length SMYD3 was used
T2 sequence (Q9H7B4 1-428): T1 sequence (Q9H7B4 1-428)
Method: Thermal Shift Assay Thermal melting experiments were performed with a ViiA™ Real-Time PCR machine (Thermo Fisher Scientific) in 384-well microliter plate with a final volume of 5 μL. Melting curves were obtained at a protein concentration of 1.5-2.0 μM and 5× SYPRO Orange (Invitrogen) using buffer containing 20 mM Tris pH7.0; 150 mM NaCl; 1.0 mM DTT. As protein untagged full length SMYD3 was used. […] As control 4% DMSO was used. Scans were measured from 25° C. to 80° C. at a scanning rate of 0.1° C./sec. All TSA data were analyzed by using Genedata Assay Analyzer.

| Compound | pIC50 [1] | Thermal shift assay (° C.) [2] [°C] |
| --- | --- | --- |
| CC1CC(=O)Nc2cc(C(=O)NCCC3CCC3)ccc2N1C(=O)c1ccccc1 (racemic) [Example 3, 1-benzoyl-N-(2-cyclobutylethyl)-2-methyl-4-oxo-2,3,4,5-tetrahydro-1H-1,5-benzodiazepine-7-carboxamide] | 5.79 | 4.56 |
| Cc1nocc1C(=O)N1c2ccc(C(=O)NCCC3CC3)cc2NC(=O)C(C)C1C (single isomer, unassigned) [Example 8, N-(2-cyclopropylethyl)-2,3-dimethyl-1-[(3-methyl-1,2-oxazol-4-yl)carbonyl]-4-oxo-2,3,4,5-tetrahydro-1H-1,5-benzodiazepine-7-carboxamide] | 5.31 | 3.77 |
| CCCCCNC(=O)c1ccc2c(c1)NC(=O)CC(C)N2C(=O)c1ccccc1F (racemic) [Example 46, 1-(2-fluorobenzoyl)-2-methyl-4-oxo-N-pentyl-2,3,4,5-tetrahydro-1H-1,5-benzodiazepine-7-carboxamide] | 4.41 | 2.02 |
| CCN1CCC(N(C)C(=O)N2c3ccc(C(=O)NCCC4CC4)cc3NC(=O)C[C@@H]2C)CC1 [Example 28, (2S)—N^7-(2-cyclopropylethyl)-N^1-(1-ethylpiperidin-4-yl)-N^1,2-dimethyl-4-oxo-2,3,4,5-tetrahydro-1H-1,5-benzodiazepine-1,7-dicarboxamide] | 6.89 | 9.94 |
| CCCCNC(=O)c1ccc2c(c1)NC(=O)CC(C)N2C(=O)CCC1CCCC1 (racemic) [Example 51, N-butyl-1-(3-cyclopentylpropanoyl)-2-methyl-4-oxo-2,3,4,5-tetrahydro-1H-1,5-benzodiazepine-7-carboxamide] | 4.61 | 1.83 |
| CC1C(=O)Nc2cc(C(=O)NCCC3CCC3)ccc2N(C(=O)c2ccccc2)C1C (mixture of isomers) [Example 4, 1-benzoyl-N-(2-cyclobutylethyl)-2,3-dimethyl-4-oxo-2,3,4,5-tetrahydro-1H-1,5-benzodiazepine-7-carboxamide] | 5.91 | 4.38 |
| CC1C(=O)Nc2cc(C(=O)NCCC3CCC3)ccc2N(C(=O)N2CCC(N)CC2)C1C (single isomer, unassigned) [Example 22, 1-[(4-aminopiperidin-1-yl)carbonyl]-N-(2-cyclobutylethyl)-2,3-dimethyl-4-oxo-2,3,4,5-tetrahydro-1H-1,5-benzodiazepine-7-carboxamide] | 7.65 | 9.50 |
| Cc1nocc1C(=O)N1c2ccc(C(=O)NCCC3CC3)cc2NC(=O)C(C)C1C (single isomer, unassigned) [Example 9, N-(2-cyclopropylethyl)-2,3-dimethyl-1-[(3-methyl-1,2-oxazol-4-yl)carbonyl]-4-oxo-2,3,4,5-tetrahydro-1H-1,5-benzodiazepine-7-carboxamide] | < 4.70 | 1.82 |
| Cc1nocc1C(=O)N1c2ccc(C(=O)NCCC3CC3)cc2NC(=O)C(C)C1C (single isomer, unassigned) [Example 11, N-(2-cyclopropylethyl)-2,3-dimethyl-1-[(3-methyl-1,2-oxazol-4-yl)carbonyl]-4-oxo-2,3,4,5-tetrahydro-1H-1,5-benzodiazepine-7-carboxamide] | 4.89 | 3.50 |
| C[C@H]1CC(=O)Nc2cc(C(=O)NCCC3CC3)ccc2N1C(=O)N1CC2CC2C1 (stereo partly drawn) [Example 23, (2S)-1-(3-azabicyclo[3.1.0]hex-3-ylcarbonyl)-N-(2-cyclopropylethyl)-2-methyl-4-oxo-2,3,4,5-tetrahydro-1H-1,5-benzodiazepine-7-carboxamide] | 7.23 | 9.88 |
| CCCCCNC(=O)c1ccc2c(c1)NC(=O)CC(C)N2C(=O)C1CCCC1 (racemic) [Example 48, 1-(cyclopentylcarbonyl)-2-methyl-4-oxo-N-pentyl-2,3,4,5-tetrahydro-1H-1,5-benzodiazepine-7-carboxamide] | 4.57 | 1.60 |
| Cc1nocc1C(=O)N1c2ccc(C(=O)NCCC3CCC3)cc2NC(=O)C(C)C1C (single isomer, unassigned) [Example 15, N-(2-cyclobutylethyl)-2,3-dimethyl-1-[(3-methyl-1,2-oxazol-4-yl)carbonyl]-4-oxo-2,3,4,5-tetrahydro-1H-1,5-benzodiazepine-7-carboxamide] | ≤ 4.70 | 1.27 |
| Cc1nocc1C(=O)N1c2ccc(C(=O)NCCC3CC3)cc2NC(=O)CC1C (racemic) [Example 5, N-(2-cyclopropylethyl)-2-methyl-1-[(3-methyl-1,2-oxazol-4-yl)carbonyl]-4-oxo-2,3,4,5-tetrahydro-1H-1,5-benzodiazepine-7-carboxamide] | < 4.70 | 2.90 |
| CC1CC(=O)Nc2cc(C(=O)NCCC3CC3)ccc2N1C(=O)c1ccccc1 (racemic) [Example 1, 1-benzoyl-N-(2-cyclopropylethyl)-2-methyl-4-oxo-2,3,4,5-tetrahydro-1H-1,5-benzodiazepine-7-carboxamide] | 5.78 | 5.27 |
| C[C@H]1CC(=O)Nc2cc(C(=O)NCCC3CC3)ccc2N1C(=O)N1CC[C@H](N)C1.Cl [Example 37, (2S)-1-{[(3S)-3-aminopyrrolidin-1-yl]carbonyl}-N-(2-cyclopropylethyl)-2-methyl-4-oxo-2,3,4,5-tetrahydro-1H-1,5-benzodiazepine-7-carboxamide hydrochloride (1:1)] | 6.67 | 8.66 |
| C[C@H]1CC(=O)Nc2cc(C(=O)NCCC3CC3)ccc2N1C(=O)N(C)C1CCNCC1 [Example 45, (2S)—N^7-(2-cyclopropylethyl)-N^1,2-dimethyl-4-oxo-N^1-(piperidin-4-yl)-2,3,4,5-tetrahydro-1H-1,5-benzodiazepine-1,7-dicarboxamide] | 6.41 | 7.24 |
| C[C@H]1CC(=O)Nc2cc(C(=O)NCCC3CC3)ccc2N1C(=O)N1CCN(CC(F)(F)F)CC1 [Example 30, (2S)—N-(2-cyclopropylethyl)-2-methyl-4-oxo-1-{[4-(2,2,2-trifluoroethyl)piperazin-1-yl]carbonyl}-2,3,4,5-tetrahydro-1H-1,5-benzodiazepine-7-carboxamide] | 6.10 | 5.69 |
| CC1C(=O)Nc2cc(C(=O)NCCC3CC3)ccc2N(C(=O)N2CCC(N)CC2)C1C (mixture of isomers) [Example 19, 1-[(4-aminopiperidin-1-yl)carbonyl]-N-(2-cyclopropylethyl)-2,3-dimethyl-4-oxo-2,3,4,5-tetrahydro-1H-1,5-benzodiazepine-7-carboxamide] | 7.43 | 10.30 |
| C[C@H]1CC(=O)Nc2cc(C(=O)NCCC3CC3)ccc2N1C(=O)N1CCC(F)(F)CC1 [Example 25, (2S)—N-(2-cyclopropylethyl)-1-[(4,4-difluoropiperidin-1-yl)carbonyl]-2-methyl-4-oxo-2,3,4,5-tetrahydro-1H-1,5-benzodiazepine-7-carboxamide] | 5.64 | 6.12 |
| Cc1nocc1C(=O)N1c2ccc(C(=O)NCCC3CCC3)cc2NC(=O)C(C)C1C (single isomer, unassigned) [Example 13, N-(2-cyclobutylethyl)-2,3-dimethyl-1-[(3-methyl-1,2-oxazol-4-yl)carbonyl]-4-oxo-2,3,4,5-tetrahydro-1H-1,5-benzodiazepine-7-carboxamide] | 5.34 | 3.71 |
